Data set [1] relates to Arabidopsis thaliana ecotype Columbia plants. The data set can be described thus: Effects on whole plants/seedlings, Arabidopsis thaliana. The data set is classed as in vivo. The text has this:
(§1) The leaf tissue initially turned yellow, followed by rapid necrosis of the tissue (see FIG. 32). […] The high hydrophility of Peptide 1 may preferentially allow the compound to readily diffuse through the leaf cuticle and epidermis to the mesophyll and phloem below.
(§2) The heterocyclic compounds were also spotted onto the leaves of 4 week old, tissue culture grown Arabidopsis thaliana ecotype Columbia plants (see FIG. 34, panels A-1). […] The browning and necrosis diffused through the full thickness of the leaf over the next 60 minutes (see FIG. 34, panel F) and spread towards the meristem (see FIG. 34, panels E, F, H). Complete necrosis of the meristem and newly emerged leaves, where organellar replication takes place, was complete within 24 hours (see FIG. 34, panel F).

Data set [2] concerns A. thaliana ecotype Columbia seeds. The data set can be described thus: Seed germination of A. thaliana. The data set is classed as in vivo, Arabidopsis thaliana.
The target in the next data set is DNA gyrase A2B2 (Escherichia coli, UniProt P0AES4+P0AES6). The data set can be described thus: biochemical. The data set is classed as biochemical, E. coli.
Data set [3] concerns Arabidopsis thaliana ecotype Columbia plants. The data set can be described thus: Effects on A. thaliana seedlings and plants. The data set is classed as in vivo. As for the experimental part:
(§3) The microcin derivatives were tested for efficacy in planta against Arabidopsis thaliana ecotype Columbia according to known methods (see Wall et al., 2004). Seeds were germinated on sterile media containing the appropriate peptide and the effects were observed over a three week period. […] In […] seeds, such as A. thaliana, during imbibition the quiescent seed rapidly resumes metabolic and respiratory activity. One of the first steps, as part of this process, is the initiation of mitochondrial DNA synthesis which requires DNA gyrase and which may explain the exquisite sensitivity of the germinating seeds to Peptides 1 and 2.
as §1, §2

The nature of another data set: Solubility. Conditions: water.
In data set [4] the test system is Arabidopsis thaliana ecotype Columbia seeds. The data set can be described thus: Seed germination, Arabidopsis thaliana. The data set is classed as in vivo. The following applies: three week period.
Source text: Germination begins when the dormant dry seed begins to take up water (imbibition from the surface sterilization process). Primary roots emerge while the seed is in the culture media. Subsequently the hypocotyls emerge and elongate to pull the cotyledons above the culture media surface. After straightening up, the cotyledons arrange into an horizontal position, as shown in the Figure, and, then spread apart in order to expose the first true leaves and the apical meristem (growing tip).
as §3

Another data set concerns E. coli MG1655. The data set can be described thus: Halo assay, wild-type E. coli MG1655. The data set is classed as cell-based.
For another data set, the target named is DNA gyrase (Escherichia coli, UniProt P0AES4+P0AES6). The data set is classed as biochemical, E. coli.
The target in data set [5] is DNA gyrase (MG 1655 A2B2) (Escherichia coli, UniProt P0AES4+P0AES6). The data set can be described thus: biochemical. Also on record: species or system E. coli.
Method: GyrA and GyrB were added to a solution containing 35 mM Tris.HCl (pH, 7.5), 24 mM KCl, 4 mM MgCl2, 1.8 mM spermidine, 6.5% glycerol, 0.36 mg/mL BSA, 9 μg/mL tRNA, 5 mM DTT, 2 mM ATP and 24 nM relaxed pBR322 DNA. […] The reactions were incubated at 25° C., and at each time point 30-μl aliquots were quenched with 1 μL of 10% SDS. An equal volume of chloroform/isoamyl alcohol (24:1) and a half volume of loading buffer STEB (40% sucrose/100 mM Tris.HCl, pH 7.5/100 mM EDTA/2 mg/ml bromophenol blue) were added, and the mixtures then were vortexed and centrifuged for 1 min at 13,000 rpm. The aqueous phase was loaded onto 1% agarose, TAE (40 mM Tris-acetate, 1 mM EDTA) gels and were run at either 30 V overnight in TAE (in the cold room) or 70 V for 2.5 hours. The gels were stained for about 20 min in TAE containing 1 μg/ml ethidium bromide followed by destaining in multiple washes of TAE.
The target in data set [6] is T1, E. coli DNA gyrase A2B2, MG1655 wild type (Escherichia coli, UniProt P0AES4+P0AES6). Conditions: Flatman et al., 2004; cited from earlier work.
Data set [7] deals with T2, E. coli DNA gyrase A2B2, wild type (Escherichia coli, UniProt P0AES4+P0AES6). Conditions: Flatman et al., 2004; cited from earlier work.
Data set [8] concerns the target T1, E. coli DNA gyrase A2B2, MG1655 wild type. The following applies: Flatman et al., 2004; cited from earlier work. This is another data set of the same source.
Data set [9] addresses T2, E. coli DNA gyrase A2B2, wild type. The following applies: Flatman et al., 2004; cited from earlier work. This is another data set of the same source.

The text below walks through data of patent US20080234132A1, “Microcin B17 Analogs And Methods For Their Preparation And Use” (priority 2004, published 2008).

Values after ≈ are worked out from the molar mass of the structure shown. *1 amine or outer side, *2 acyl side, *3 side chain or, on linkers, in order; H or OH if unused. Where a SMILES comes first, the peptide text is derived from it. [ ]: non-standard residue; d: D form. X2 = O=C(c1c[nH]c(CN[*:1])c1)[*:2]

Sequence of DNA gyrase (MG 1655 A2B2) (P0AES4 whole entry, one chain of several): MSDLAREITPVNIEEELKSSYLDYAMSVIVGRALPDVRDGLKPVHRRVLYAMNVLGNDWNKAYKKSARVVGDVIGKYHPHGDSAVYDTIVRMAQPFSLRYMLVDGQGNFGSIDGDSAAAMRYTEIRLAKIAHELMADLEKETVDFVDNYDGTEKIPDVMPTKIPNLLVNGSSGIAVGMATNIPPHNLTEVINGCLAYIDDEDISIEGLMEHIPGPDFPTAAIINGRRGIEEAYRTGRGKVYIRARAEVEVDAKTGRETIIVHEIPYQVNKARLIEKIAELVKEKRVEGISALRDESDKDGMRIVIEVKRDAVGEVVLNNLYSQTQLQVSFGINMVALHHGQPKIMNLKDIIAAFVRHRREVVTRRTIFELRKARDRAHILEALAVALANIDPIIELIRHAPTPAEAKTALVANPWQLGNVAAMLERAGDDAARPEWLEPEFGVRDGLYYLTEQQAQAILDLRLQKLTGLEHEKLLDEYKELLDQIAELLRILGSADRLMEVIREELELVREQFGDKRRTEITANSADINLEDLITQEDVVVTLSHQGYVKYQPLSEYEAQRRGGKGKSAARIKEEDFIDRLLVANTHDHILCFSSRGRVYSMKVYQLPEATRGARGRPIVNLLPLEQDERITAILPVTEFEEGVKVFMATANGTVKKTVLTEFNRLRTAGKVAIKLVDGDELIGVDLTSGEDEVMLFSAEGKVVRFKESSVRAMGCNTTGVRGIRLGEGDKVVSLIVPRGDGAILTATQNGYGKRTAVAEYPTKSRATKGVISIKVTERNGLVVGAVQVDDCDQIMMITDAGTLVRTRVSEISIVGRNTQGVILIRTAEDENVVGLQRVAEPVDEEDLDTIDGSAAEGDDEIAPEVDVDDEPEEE
T2 sequence (P0AES4 whole entry, one chain of several): as above
T1 sequence (P0AES4 whole entry, one chain of several): as above
Sequence of DNA gyrase (P0AES4 whole entry, one chain of several): as above
Sequence of DNA gyrase A2B2 (P0AES4 whole entry, one chain of several): as above
Method for E. coli MG1655: Lawns of cells were prepared by spreading, on top of a LB+Agar plate, 3 ml of melted LSS medium (half-agar strength: 0.3 g Agar/50 ml LB) inoculated with 100 μl of a 10 ml LB overnight culture of E. coli cells grown at 37° C. […] The plates were incubated at 37° C. overnight and growth inhibition was qualitatively analysed by measuring the diameter of each halo.

On to `C[C@H](NC(=O)CNC(=O)CNC(=O)c1c[nH]c(CNC(=O)[C@H](C)NC(=O)CNC(=O)[C@@H](N)CCC(N)=O)c1)C(=O)O` [Peptide 2] (H-QGA[X2]GGA-OH), for which the “Effect on 4-week old plants” value in data set [1] (200 μM) is “induced tumourous, undifferentiated cell growth in the meristematic region and petioles”. Also, the “effect on 6-week old seedlings” value in [1] (observed at 150 μM (FIG. 26)) is listed as “induces tumour-like growth near the apical meristem zone”; in data set [3] (in vivo), “induces tumour-like growth”. The entries for the “effect on seed germination” value in data set [2] (100 μM) and in [2] (150 μM) were “only a bleaching effect” and “seed germination occurred but the growth is slower compared with the untreated seeds”, respectively. Besides, in [2] (200 μM), the “effects on 6-week old seedlings and germinating seeds” value is recorded as “the same as the effects observed for 100 μM Peptide 1”. In addition, the “activity against seed germination” value in [2] (concentrations tested) is given as “able to inhibit germination”. For the same molecule, in data set [2] (in vivo), the “potency relative to Peptide 1 in plant assays” value was “half the potency of Peptide 1”. In addition, the IC50 against DNA gyrase A2B2 is over 100 µM; in data set [5] (Supercoiling (IC50 μM) MG 1655 A2B2, Table 4), over 100 µM. The “concentration at which the relaxation reaction is inhibited” value at DNA gyrase A2B2 (A2B2 70 nM, MccB17 tested at 25 μM) was found to be 200 µM. In data set [3] (100 μM Peptide 1, 200 μM Peptide 2), the “effect on 4-week old plants transferred to media containing the compound” value was “induced tumourous, undifferentiated cell growth”. For the same molecule, in “Solubility”, the solubility worked out at 1000 µM (≈ 582 µg/mL). The “Inhibition of seed germination” value in [4] is recorded as “able to inhibit germination of the seeds”. Further, the “haloassay activity relative to Peptide 1” value in the data set with E. coli MG1655 is recorded as “twice less active than Peptide 1”. Moreover, the “stabilisation of the cleaved DNA-enzyme (cleavage) complex” value at DNA gyrase (Peptide 1 at 100 μM, [A2B2]=30 nM, up to 1 h) is recorded as “Neither Peptide 1 nor Peptide 2 stabilise”. Moreover, the “Cleavage (IC50 μM)” value on DNA gyrase (Table 4) was “inactive”. For the same molecule, the “supercoiling activity relative to Peptide 1” value in data set [5] (FIG. 13) is reported as “about half as active as Peptide 1”.
Consider `CC(=O)O[C@@H]1[C@@H](C)O[C@@H](c2ccc3c(c2O)[C@@H](O)[C@]24O[C@@]2(C3=O)[C@@]2(O)C(=O)C=C(C)C[C@@]2(O)C[C@@H]4O)C[C@H]1OC(=O)/C=C/C=C/C=C/C=C/C(=O)Nc1c(O)c2ccc(O)c(Cl)c2oc1=O` [simocyclinone D8], for which the “Inhibition of supercoiling reaction” value in [6] is “inhibits the supercoiling and relaxation reactions”. The “Cleavage complex formation / quinolone cleavage” value in data set [7] is listed as “does not stimulate the gyrase-dependent cleavage complex formation but antagonizes quinolone cleavage”. The “Inhibition of ATPase reaction” value in [8] is reported as “not the ATPase reaction”. The “Inhibition of relaxation reaction” value in [9] was “inhibits the supercoiling and relaxation reactions”.
